Non-standard residues stand in square brackets, D forms with d. Residues, ends and D or L forms follow the SMILES beside them. Dip = N[C@H](C(=O)O)C(c1ccccc1)c1ccccc1
Experiments:
Plasma stability study = assay type: in vitro ADME; details: 500 µM in 25% human plasma in water, 37 °C
Protocol: The metabolic stability of [DipR]5 was assessed in human plasma by using a high-resolution mass spectrometer (LC-QTOF-MS). To remove the background interference, the data were processed by using a narrower (±0.1 m/z) extracted ion chromatogram (EIC) window. Test compound (500 µM) was incubated in 25% human plasma in water at 37 °C. 50 µL aliquots were taken at different time points (0, 0.5, 1, 2, 3, and 13 h), and the plasma proteins were precipitated by the addition of cold ethanol (50 µL) and incubated for 5 min in ice and water. The samples were centrifuged at 7000 RPM for 5 min, and the supernatant (10 µL) was injected into LC-QTOF-MS (Impact II model, Bruker Daltonik, Bremen, Germany). The samples were analyzed on Waters Xterra MS C18 5 µm 2.10 mm × 50 mm column at a flow rate of 0.3 mL/min using a linear gradient of aqueous ACN in the presence of formic acid (0.1%, v/v) as ion pair reagent. The analytes were quantified by their peak areas of EIC. The percentage digestion of the test compound was calculated relative to the peak areas at 0 min.

Dynamic light scattering = assay type: physicochemical; details: DLS, 10 µM, 25 °C
Protocol: The samples were prepared in 10 µM concentration and were incubated for approximately 2 h after thawing from a freezer (0 to −18 °C). Samples were analyzed by dynamic light scattering (DLS) for particle sizes and the polydispersity index (PI). The data were acquired by using a Zetasizer Nano ZS (Malvern, Worcestershire, UK), which has a 0.3 nm to 10 µm particle size range and was equipped with a laser beam (λ = 633 nm; 4 mW) and a scattered light detector positioned at an angle of 173° (noninvasive backscatter) in order to unmask scattered light signals of low intensity originated by the smaller particles. The analytical model was based on protein analysis. The sensitivity of the device is reported to be at 0.1 mg/mL (lysozyme). The refractive index and absorption were set at 1.450 and 0.001 for the material. The refractive index, viscosity, and temperature were set at 1.33, 0.8872, and 25 °C for dispersant. Particle sizes and PI measurements were made in disposable cuvettes (ZEN0040) at 25 °C and variable runs per measurement.

CCRF-CEM cells = assay: In vitro cytotoxicity (MTS) in CCRF-CEM cells; assay type: cell-based, human; details: 25 µM, MTS, n = 3
Protocol: SK-OV-3, CCRF-CEM, HEK-293, MDA-MB-468, LLC-PK1, and MES-SA were used to determine the cytotoxicity of the synthesized linear and cyclic peptides. About 5000, 10,000, and 50,000 cells were seeded for SK-OV-3, HEK-293, and CCRF-CEM cells, respectively, in 0.1 mL of medium per well of 96-well plates. An appropriate medium was used for each cell line (SK-OV-3: McCoy’s 5A with L-glutamine containing fetal bovine serum (FBS) (10%) and penicillin or streptomycin (1%); CCRF-CEM: RPMI-1640 medium with L-glutamine and sodium bicarbonate containing FBS (10%) and penicillin or streptomycin (1%); MDA-MB-468 cells: DMEM/F12 (1:1) (1×) with L-glutamine and 15 mM HEPES containing FBS (10%) and penicillin or streptomycin (1%); LLC-PK1 cells: Dulbecco’s Modified Eagle’s Medium with 4500 mg/L glucose, L-glutamine and sodium bicarbonate, without sodium pyruvate liquid containing FBS (10%) and penicillin or streptomycin (1%); MES-SA cells: consisting of half SK-OV-3 and half CCRF-CEM media; and HEK-293 cells: Minimum Essential Medium Eagle with Earle’s salts and sodium bicarbonate, without L-glutamine containing FBS (10%) and penicillin or streptomycin (1%)). Then, 20 µL of peptides containing 5% DMSO in water were added to each well.
Adhesive cells were detached with 0.05% trypsin/EDTA after 15 min. The suspended cells were seeded in the medium 24 h prior to the experiment according to the previously reported procedure. The medium was changed before adding the peptides for adherent cells. Each concentration 5, 10, 25, 50, and 166 µM (containing 0.8% DMSO) had triplicate wells to minimize possible errors. […] The cell viability was measured by utilizing Multi-Mode Microplate Reader (SpectraMax M5 model, Molecular Devices, San Jose, CA, USA) after adding 20 µL of the MTS reagent to each well and incubating for 3 additional hours. […] The protocol manager was selected “endpoint” on the spectrophotometer’s software (SoftMax Pro 7). The 96-well plates were inserted inside spectrophotometer, and the data were acquired. The percentage of cell viability was calculated using the following equation:(1) =(Average OD values of samples treated with the compound /Average OD values of no treatment samples )∗100

HEK-293 cells = assay type: cell-based, human; details: HEK-293, 25 µM, 24 h incubation, MTS
Protocol: SK-OV-3, CCRF-CEM, HEK-293, MDA-MB-468, LLC-PK1, and MES-SA were used to determine the cytotoxicity of the synthesized linear and cyclic peptides. About 5000, 10,000, and 50,000 cells were seeded for SK-OV-3, HEK-293, and CCRF-CEM cells, respectively, in 0.1 mL of medium per well of 96-well plates. […]
Adhesive cells were detached with 0.05% trypsin/EDTA after 15 min. […] The cell viability was measured by utilizing Multi-Mode Microplate Reader (SpectraMax M5 model, Molecular Devices, San Jose, CA, USA) after adding 20 µL of the MTS reagent to each well and incubating for 3 additional hours. […] The percentage of cell viability was calculated using the following equation:(1) =(Average OD values of samples treated with the compound /Average OD values of no treatment samples )∗100

With N=C(N)NCCC[C@@H]1NC(=O)[C@H](C(c2ccccc2)c2ccccc2)NC(=O)[C@H](CCCNC(=N)N)NC(=O)[C@H](C(c2ccccc2)c2ccccc2)NC(=O)[C@H](CCCNC(=N)N)NC(=O)[C@H](C(c2ccccc2)c2ccccc2)NC(=O)[C@H](CCCNC(=N)N)NC(=O)[C@H](C(c2ccccc2)c2ccccc2)NC(=O)[C@H](CCCNC(=N)N)NC(=O)[C@H](C(c2ccccc2)c2ccccc2)NC1=O [[DipR]5] (cyclo([Dip]R[Dip]R[Dip]R[Dip]R[Dip]R)) the “stability in human plasma” value (Plasma stability study; 0-13 h, LC-QTOF-MS) was “high stability”, the metabolised at 1 h, 500 µM (Plasma stability study; after 1 h, LC-QTOF-MS EIC peak area relative to 0 min, read-out: degradation in human plasma) was about 15% and the Z average size (Dynamic light scattering) was 200.6 nm. For the same compound, the “polydispersity index (PI)” value (Dynamic light scattering) was 0.359, the “reduction of cell proliferation” value (CCRF-CEM cells; 24 h incubation) was 64% and the “reduction of cell proliferation” value (CCRF-CEM cells; 72 h incubation) was 84%. For the same compound, the “reduction of cell proliferation” value (HEK-293 cells) was 56%.

Source: publication PMC8997995, “Amphiphilic Cell-Penetrating Peptides Containing Natural and Unnatural Amino Acids as Drug Delivery Agents” (Cells, 2022)
